Columns and labels:
normal rats [1] = assay: Induction of stereotyped behaviour in normal rats (stereotypy scoring); assay type: in vivo, rat; settings: for stereotypy (overall effect): male Wistar rats, all doses tested; for stereotypy (overall effect) / onset of stereotypy: s.c.; for duration of stereotypy: 300 min experiment; for onset of stereotypy: 10 mg/kg stated for (S,S′),(S,R′)-amphetaminil; for differences in overall stereotypy between groups: total stereotypy score, 0.1-10 mg/kg s.c. vs vehicle
Procedure: (§1) Male Wistar rats (n=4 per group) were randomly allocated to each drug treatment group. Drugs were administered such that, with the exception of fusaric acid, each rat in each group received all doses of the drug or vehicle in a semi random manner according to the modified Latin Square in Table 1. Compounds were administered at the doses: 0.1, 1 and 10 mg/kg s.c. in 100% DMS0 (vehicle). Amphetamine was administered at 0.1, 1 and 5 mg/kg s.c. in saline (vehicle). Fusaric acid was administered at 20, 40 and 80 mg/kg s.c. in saline (vehicle). Rats received each dose of fusaric acid (20, 40 and 80 mg/kg), doses given in order, starting with vehicle. A one-week interval was provided between doses.
(§2) At the start of the experiment, rats were placed in standard perspex behaviour boxes with a visible grid on the floor to allow determination of locomotor activity. The animals were allowed to acclimatise to their environment for 1 hour prior to drug/saline administration. Following drug administration animals were returned to the behaviour cages and locomotor activity was assessed for a further 5 hours or until baseline (zero activity for 30 minutes) was achieved, whichever was sooner. Locomotor activity was assessed by videoing the rats throughout the experiment, and counting the number of times a rat crossed a grid line during a period of 5 minutes every 10 minutes. Throughout the experiment animals were scored for stereotyped behaviours for 15 seconds every 10 minutes by a trained observer using the scoring methods described in Table 2.
The mean and standard error for stereotypy activity for 15 seconds every 10 minutes for each rat at each time point was determined. […] Cumulative activity during the 300 min was also calculated, and the effect of dose of drug was analyzed by Kruskall Wallis one-way ANOVA (GraphPad Prizm). Data was also analysed for significant fit to a sigmoidal-shaped log dose-response curve using non-linear regression analysis (GraphPad Prizm)

normal rats [2] = assay: Locomotor activity in normal rats (grid line crossings); assay type: in vivo, rat; settings: for cumulative locomotor activity: vs vehicle; for locomotor activity (overall effect): male Wistar rats, all doses tested
Procedure: as §1, §2
The mean and standard error for locomotor activity over 10 minutes for each rat at each time point was determined. […] Cumulative activity, during the 300 min was also calculated, and the effect of dose of drug was analyzed by one-way repeated measures ANOVA followed by Dunnett's t-test (GraphPad Prizm). Data was also analysed for significant fit to a sigmoidal-shaped log dose-response curve using non-linear regression analysis (GraphPad Prizm).

[3] = system: children with hyperkinetic syndrome; settings: Pacit et al., 1996; cited from earlier work

Compound	overall stereotypy during the 300 min duration of the experiment (normal rats [1]; 5 mg/kg s.c.)	stereotypy (overall effect) (normal rats [1])	onset of locomotor activity (normal rats [2]; 5 mg/kg s.c.)	time of maximum effect on locomotor activity after administration (normal rats [2]; 5 mg/kg s.c.)	cumulative locomotor activity (normal rats [2]; 5 mg/kg s.c., over the duration of the experiment)	locomotor activity (overall effect) (normal rats [2]; s.c.)	share of the racemate's pharmacological activity, total stereotypy score (FIGS. 7B and 8B) (normal rats [1]; 1 mg/kg)	peak of stereotypy (normal rats [1]; 10 mg/kg s.c.)	duration of stereotypy (normal rats [1]; 10 mg/kg s.c.)	onset of stereotypy (normal rats [1])	differences in overall stereotypy between groups (normal rats [1])	share of the racemate's pharmacological activity, cumulative locomotor activity (FIGS. 3B and 4B) (normal rats [2]; 1 mg/kg)	cumulative locomotor activity (normal rats [2]; 10 mg/kg s.c.)	onset of locomotor activity after administration (normal rats [2]; s.c.)	peak of locomotor activity (normal rats [2]; s.c.)	efficacy in the treatment of ADHD in children [3]
CC(N)Cc1ccccc1 (centres unmarked) [Amphetamine]	tended to increase	log dose-related increase stereotypy	rapid	30 min	significantly increased	dose-related increase in locomotor activity										
C[C@@H](Cc1ccccc1)NC(C#N)c1ccccc1 (stereo partly drawn) [(S,S′),(S,R′)-Amphetaminil, alpha-[(1S-Methyl-2-phenylethyl)amino]benzeneacetonitrile]		increased stereotypy in a log dose-related manner				increased locomotor activity in a dose-related manner	responsible for nearly all of the pharmacological activity of the racemate	100 min	sustained during the 300 min duration of the experiment	rapid	did not reach statistical significance	responsible for nearly all of the pharmacological activity of the racemate	significant effect	≤ 30 min	60 min	
CC(Cc1ccccc1)NC(C#N)c1ccccc1 (racemic) [Racemic amphetaminil, alpha-[(1-methyl-2-phenylethyl)amino]benzeneacetonitrile]		increased stereotypy in a log dose-related manner				increased locomotor activity only at the highest dose of 10 mg/kg			sustained for the duration of the experiment	rapid	did not reach statistical significance					efficacy
